Test results published in patent US10406227B2, “Photoactivated molecules for light-induced modulation of the activity of electrically excitable cells and methods of using same” (University of Southern California, priority 2012, dated 2019).

Key:
[1] = tested on: INS cells; assay: Whole cell patch clamp, current-clamp membrane potential under blue light; type: cell-based, rat; details: for light-induced increase in membrane potential (depolarization): 10 μM ~2 min preincubation, 488 nm
Protocol: (§1) Membrane potential was monitored using whole cell patch clamp in current-clamp mode. Cultured cells (INS and HEK293) were plated on a glass-bottomed culture dishes 1-3 days prior to recording. Cells were incubated in standard extracellular solution with or without 10 μM RubpyC17 compound for approximately 1.5-2 minutes, then washed and incubated with standard extracellular solution without additional supplementation, or with 2-5 mM ascorbate, 100 μM sodium ferrocyanide, or 100-200 μM potassium ferricyanide, as indicated. The chamber was transferred to the microscope stage. Extracellular solution consisted of 140 mM NaCl, 2.8 mM KCl, 10 mM HEPES, 1 mM MgCl2, 2 mM CaCl2, 10 mM glucose, pH adjusted to 7.3, and osmolarity adjusted to 300-310. Conventional whole-cell patch clamp recordings were performed with an EPC-9 amplifier and Pulse software (HEKA Electronics). Pipette electrodes of 1.8-3.5 Mohm were fire polished before use. Intracellular solution consisted of: 145 mM KCl, 10 mM NaCl, 1 mM MgCl2, 1 mM EGTA, 2 mM ATP, 0.3 mM GTP and 10 mM HEPES, pH adjusted to 7.3 and osmolarity adjusted to 290-300 mOsm. To monitor changes in membrane voltage/potential, cells were patch clamped in current-clamp mode. Access resistances were in the range of 3-8 Mohm. Using Pulse, membrane potentials were recorded before, during and after illumination by the argon ion laser at 488 nm with an irradiance value of 0.458 mE s^−1 m^−2 or by a xenon lamp source through a 470/40 nm bandpass excitation filter with an irradiance value of 0.480 mE s^−1 m^−2. […]
(§2) Initial attempts were tied to INS and HEK cells, both cells that are not excitable under normal conditions (INS cells were maintained in low glucose <3 mM to prevent action potentials). […] To monitor the plasma membrane potential, the cells were patch-clamped in whole-cell configuration in current-clamp mode and membrane voltages were recorded while illuminating the cell at 488 nm (0.46-0.48 mE s^−1 m^−2), though other wavelengths are useful, depending on the embodiment.

[2] = tested on: HEK293T cells; assay: as above; type: cell-based, human
Protocol: as §1, §2

[3] = tested on: cell lines and primary cells; assay: Cell health / tolerance on RubpyC17 exposure (stable gigaseal, viability); type: cell-based
Protocol: However, in several embodiments, other organic ligands coupled to other transition metals are also used, with reduced and/or non-existent adverse side effects. […] Excessive and prolonged whole cell incubation with RubpyC17 (e.g., >10 μM for >5 min) may result in cell toxicity, since a stable gigaseal cannot be stably maintained in those cells. At this time, the mechanism behind the adverse effects on cell health upon RubpyC17 overexposure is not yet fully known. Since perforation was not achieved when a small patch of membrane was exposed to a high dose of RupbyC17, it was hypothesized that when an entire cell is overexposed to RubpyC17, there may be sufficient random interactions between excess RubpyC17 complex and endogenous surface molecules (i.e., proteins, carbohydrates, sugars), triggering signals that lead to cell health deterioration. However, when used in its appropriate dose range (e.g., <about 10 μM for cell lines and <about 2 μM for primary cells, according to one embodiment), RubpyC17 is tolerated by cells and consistently confers light sensitivity.

[4] = tested on: chromaffin cells; assay: Voltage-clamp current-voltage relationship and steady-state activation before and during light; type: cell-based, mouse; details: before vs during light illumination
Text: FIGS. 5A-5H depict data from various experiments related to characteristics of RubpyC17-loaded cells. […] Inset images shown to the right of trace confirmed proper integration of RubpyC17 in patched cells. FIGS. 5C-5E show the light-induced action potential firing in chromaffin cells was not due to biophysical changes in voltage-gated ion channels as there were no significant changes in current-voltage relationships (C-D) nor in steady-state activation curve (E) in RubpyC17-loaded chromaffin cells before (open circle) or during ([…]) light illumination. […] Peak inward currents from each stimulation jump were plotted against corresponding stimulating voltages (n=6). […] Data from representative cell is shown (n=5). […] Currents resulting from capacitor-like behavior of chromaffin cell membranes during hyperpolarizing jumps to −85 mV from a resting membrane potential of −80 mV were recorded 5 min following giga-seal formation for amphoterecin B (bottom trace) or 10 min following giga-seal formation for RubpyC17 (top trace).
To examine whether light-activated RubpyC17 can directly interact and open or block endogenous ion channels, HEK293T cells were preincubated with RubpyC17, and patch-clamped in a voltage-clamp configuration. Voltage-clamp configuration allowed the cells to be clamped at a potential where most voltage-gated ion channels are closed (approximately −80 mV). […]

[5] = tested on: RCS rats; assay: Extracellular recording from superior colliculus after intravitreal injection; type: in vivo, rat
Text: This finding was reproduced in 3 of 3 RCS rats injected with Rubpy-C17, and in 2 of 2 control (sham injection) RCS rats.

[Ru(bpy)2(bpy-C17)](PF6)2 [RubpyC17] was tested, and the “light-induced increase in membrane potential (depolarization)” value ([1]; 2 mM ascorbate) was 15.9 ± 4.6 mV, the “light-induced increase in membrane potential (depolarization)” value ([1]; absence of ascorbate) was 9.8 ± 4.5 mV and the “light-triggered depolarization with non-permeating ions” value ([1]; NMDG for sodium, cesium for potassium, ascorbate present) was “still persisted”. The light-induced depolarization ([2]; 10 μM ~2 min preincubation, 2 mM ascorbate, 488 nm) was 14.6 ± 2.4 mV, the light-induced hyperpolarization ([2]; 100 uM ferricyanide in extracellular solution) was 20.9 ± 4.9 mV and the “light-induced depolarization with ferrocyanide as reductant” value ([2]; 0.1 mM ferrocyanide) was “light-induced depolarization was also observed”. The tolerated dose range ([3]; cell lines) was under 10 µM, the “whole cell incubation concentration that may result in cell toxicity” value ([3]; for >5 min, stable gigaseal not maintained) was over 10 µM and the “viability of chromaffin cells” value ([3]; incubations of ˜30 min) was “continued viability”. For the same substance, the tolerated dose range ([3]; primary cells) was under 2 µM, the “effect on biophysical properties of endogenous ion channels (I-V, steady-state activation)” value [4] was “does not alter the biophysical properties of endogenous ion channels” and the “RCS rats showing light-evoked superior colliculus activity” value ([5]; intravitreal, final concentration 100 μM) was 3 of 3. The “light-evoked electrical activity in superior colliculus” value ([5]; intravitreal, final concentration 100 μM, 30 minutes after injection) was “elicited reproducible and stereotypical electrical activity” and the “persistence of light-induced SC electrical responses after injection” value ([5]; single eye injection) was “up to 3 days”.
